Source: US20260053171A1, “METHANOGEN INHIBITORS” (AGRIZERONZ LIMITED PARTNERSHIP, priority 2022, published 2026)

Tested on: methane production in rumen fluid
Assay: Rumen in vitro (RIV) assay, methane production from rumen fluid incubations
Assay type: cell-based, cattle
Conditions: Bos taurus, read-out: RIV % methane reduction +/− SD
Procedure: The compounds of the present invention were initially screened for activity using an in vitro fully automated incubation system for the measurement of total gas production and gas composition (methane and hydrogen). The system used is described in detail in the paper by Muetzel et al. (2014; Animal Feed Science and Technology 196, 1-11). The system in this specification is referred to as the rumen in vitro system or RIV. The RIV system provides a relatively simple tool for determining the rate and production of methane and also whether the rate and production of methane is inhibited or reduced by a particular compound or feed. Rumen in vitro assays use rumen fluid from donor animals (typically either sheep or cattle) which is typically combined with a buffer and then incubated in sealed fermentation vessels at 39° C. for either 24 or 48 h. These assays systems have been well-characterised and used by the scientific community over the last two decades (Rymer et al. 2005). The system that has been used here to characterise the effects of inhibitors on methane production and gas production, and the formation of H2, was described by Muetzel et al. (2014). Rumen in vitro assay systems reflect what can occur in the rumen in vivo, but only short-term, due to their short incubation times (typically not exceeding 48 h) which is limited by its buffering capacity and the fact that it is a closed system. Stock solutions of inhibitors were re-suspended in dimethylformamide (DMF) at concentrations 1000-fold higher than the highest used for the assays. Any further dilutions were also prepared using DMF. The total amount of inhibitor solution added to the rumen fluid-buffer mixture (60 mL) was 60 μl. Incubations used 60 ml of medium containing 12 ml of filtered rumen fluid and 48 ml of buffer in serum bottles for 24-48 h, essentially as described by Muetzel et al. (2014). Two fistulated cattle were used as donor animals for rumen fluid and treatments were incubated in duplicate bottles. Sets of duplicate incubation vials that contained ryegrass (with rumen fluid-buffer mixture), and ryegrass with 30 μM bromoethanesulfonate (BES) were also incubated as negative and positive controls, respectively. One experiment consists of 2 replicates of an inhibitor at any one concentration run at the same time, and a run can contain up to 32 bottle, including positive (30 µM BES) and negative (no inhibitor added) controls. Compound 1, for example, was tested using the 60 mL rumen in vitro assay system at 50 μM, 10 μM, and 2 μM final concentrations and compared to a positive control with 30 µM BES.

Row | Compound | inhibition at 2 µM [%] | inhibition at 10 µM [%] | inhibition at 50 µM [%]
1 | CC(C)S(=O)(=O)NC(=O)CCC(=O)N1N=C(c2ccc(Cl)cc2)CC1c1ccc2nccnc2c1 (centres unmarked) [Compound 58] | 6 ± 1.6 | 80.4 ± 6.3 | 93.9 ± 4.7
2 | O=C(O)CCC(=O)N1N=C(c2ccc(Oc3ccccc3)cc2)CC1c1ccc2nccnc2c1 (centres unmarked) [Compound 7, 4-Oxo-4-(3-(4-phenoxyphenyl)-5-(quinoxalin-6-yl)-4,5-dihydro-1H-pyrazol-1-yl)butanoic acid] |  | 30.7 ± 3.6 | 66.4 ± 14.7
3 | CC(C)Cc1ccc(-c2ccc(C3=NN(C(=O)CCC(=O)O)C(c4ccc5nccnc5c4)C3)cc2)cc1 (centres unmarked) [Compound 86, 4-(3-(4′-Isobutyl-[1,1′-biphenyl]-4-yl)-5-(quinoxalin-6-yl)-4,5-dihydro-1H-pyrazol-1-yl)-4-oxobutanoic acid] |  | 29 ± 8.6 | 
4 | O=C(O)CCC(=O)N1N=C(c2ccc(-c3ccc(OCC(F)(F)F)cc3)cc2)CC1c1ccc2nccnc2c1 (centres unmarked) [Compound 92, 4-Oxo-4-(5-(quinoxalin-6-yl)-3-(4′-(2,2,2-trifluoroethoxy)-[1,1′-biphenyl]-4-yl)-4,5-dihydro-1H-pyrazol-1-yl)butanoic acid] | 32.1 ± 0.8 | 81.4 ± 3.1 | 
5 | O=C(O)CCC(=O)N1N=C(c2cccc(-c3cccc(OC(F)(F)F)c3)c2)CC1c1ccc2nccnc2c1 (centres unmarked) [Compound 98, 4-Oxo-4-(5-(quinoxalin-6-yl)-3-(3′-(trifluoromethoxy)-[1,1′-biphenyl]-3-yl)-4,5-dihydro-1H-pyrazol-1-yl)butanoic acid] |  | 15.6 ± 0.6 | 91 ± 2.7
6 | O=C(O)CCC(=O)N1N=C(c2ccc3ccccc3c2)CC1c1ccc2nccnc2c1 (centres unmarked) [Compound 31, 4-(3-(Naphthalen-2-yl)-5-(quinoxalin-6-yl)-4,5-dihydro-1H-pyrazol-1-yl)-4-oxobutanoic acid] |  |  | 56.6 ± 6.9
7 | CC(C)(C)C(=O)OCOC(=O)CCC(=O)N1N=C(c2ccc(Cl)cc2)CC1c1ccc2nccnc2c1 (centres unmarked) [Compound 54, (Pivaloyloxy)methyl 4-(3-(4-chlorophenyl)-5-(quinoxalin-6-yl)-4,5-dihydro-1H-pyrazol-1-yl)-4-oxobutanoate] |  |  | 23.8 ± 9.4
8 | COc1cc(C2CC(c3ccc(-c4ccccc4)cc3)=NN2C(=O)CCC(=O)O)ccc1O (centres unmarked) [Compound 46, 4-(3-([1,1′-Biphenyl]-4-yl)-5-(4-hydroxy-3-methoxyphenyl)-4,5-dihydro-1H-pyrazol-1-yl)-4-oxobutanoic acid] |  |  | 48.6 ± 1.7
9 | O=C(O)CCC(=O)N1N=C(c2ccc(-c3ccccc3)cc2)CC1c1ccc2nccnc2c1 (centres unmarked) [Compound 15, 4-(3-([1,1′-Biphenyl]-4-yl)-5-(quinoxalin-6-yl)-4,5-dihydro-1H-pyrazol-1-yl)-4-oxobutanoic acid] | < 5 | 60.1 ± 1 | 87.8 ± 1.6
10 | O=C(O)CCC(=O)N1N=C(c2ccc(-c3ccoc3)cc2)CC1c1ccc2nccnc2c1 (centres unmarked) [Compound 108, 4-(3-(4-(Furan-3-yl)phenyl)-5-(quinoxalin-6-yl)-4,5-dihydro-1H-pyrazol-1-yl)-4-oxobutanoic acid] |  | 6.3 ± 6.1 | 48.3 ± 2.8
11 | O=C(O)CCC(=O)N1N=C(c2ccc(-c3ccc(OC4CCCC4)cc3)cc2)CC1c1ccc2nccnc2c1 (centres unmarked) [Compound 85, 4-(3-(4′-(Cyclopentyloxy)-[1,1′-biphenyl]-4-yl)-5-(quinoxalin-6-yl)-4,5-dihydro-1H-pyrazol-1-yl)-4-oxobutanoic acid] | 17.9 ± 7.3 | 71.8 ± 4.5 | 
12 | COc1cc(C2CC(c3ccc(Cl)cc3)=NN2C(=O)CCC(=O)O)ccc1O (centres unmarked) [Compound 45, 4-(3-(4-Chlorophenyl)-5-(4-hydroxy-3-methoxyphenyl)-4,5-dihydro-1H-pyrazol-1-yl)-4-oxobutanoic acid] |  | 9.9 ± 1.8 | 73.1 ± 8.6
13 | CCCOc1ccc(-c2ccc(C3=NN(C(=O)CCC(=O)O)C(c4ccc5nccnc5c4)C3)cc2)cc1 (centres unmarked) [Compound 78, 4-Oxo-4-(3-(4′-propoxy-[1,1′-biphenyl]-4-yl)-5-(quinoxalin-6-yl)-4,5-dihydro-1H-pyrazol-1-yl)butanoic acid] | 39.8 ± 18.5 | 88.8 ± 2 | 
14 | CN(C)S(=O)(=O)NC(=O)CCC(=O)N1N=C(c2cccc(-c3ccccc3)c2)CC1c1ccc2nccnc2c1 (centres unmarked) [Compound 127, 4-(3-([1,1′-Biphenyl]-3-yl)-5-(quinoxalin-6-yl)-4,5-dihydro-1H-pyrazol-1-yl)-N—(N,N-dimethylsulfamoyl)-4-oxobutanamide] | 16.8 ± 0.7 | 84.1 ± 3 | 
15 | O=C(O)CCC(=O)N1N=C(c2ccc(-c3ccc(SC(F)(F)F)cc3)cc2)CC1c1ccc2nccnc2c1 (centres unmarked) [Compound 94, 4-Oxo-4-(5-(quinoxalin-6-yl)-3-(4′-((trifluoromethyl)thio)-[1,1′-biphenyl]-4-yl)-4,5-dihydro-1H-pyrazol-1-yl)butanoic acid] |  | 32.7 ± 1.2 | 
16 | O=C(O)CCC(=O)N1N=C(c2ccc(-c3cc(Cl)cc(Cl)c3)cc2)CC1c1ccc2nccnc2c1 (centres unmarked) [Compound 28, 4-(3-(3′,5′-Dichloro-[1,1′-biphenyl]-4-yl)-5-(quinoxalin-6-yl)-4,5-dihydro-1H-pyrazol-1-yl)-4-oxobutanoic acid] | 8 ± 2.1 | 84 ± 0.8 | 96.1 ± 0.1
17 | O=C(CCC(=O)N1N=C(c2ccc(-c3ccccc3)cc2)CC1c1ccc2nccnc2c1)NS(=O)(=O)c1ccccc1 (centres unmarked) [Compound 123, 4-(3-([1,1′-Biphenyl]-4-yl)-5-(quinoxalin-6-yl)-4,5-dihydro-1H-pyrazol-1-yl)-4-oxo-N-(phenylsulfonyl) butanamide] | 7.4 ± 0.7 | 77 ± 4.2 | 
18 | COCc1ccc(-c2ccc(C3=NN(C(=O)CCC(=O)O)C(c4ccc5nccnc5c4)C3)cc2)cc1 (centres unmarked) [Compound 89, 4-(3-(4′-(Methoxymethyl)-[1,1′-biphenyl]-4-yl)-5-(quinoxalin-6-yl)-4,5-dihydro-1H-pyrazol-1-yl)-4-oxobutanoic acid] |  | 21.9 ± 7 | 85 ± 1.7
19 | CCOc1cc(C2CC(c3ccc(Cl)cc3)=NN2C(=O)CCC(=O)O)ccc1O (centres unmarked) [Compound 47, 4-(3-(4-Chlorophenyl)-5-(3-ethoxy-4-hydroxyphenyl)-4,5-dihydro-1H-pyrazol-1-yl)-4-oxobutanoic acid] |  |  | 68.3 ± 3.9
20 | O=C(O)CCC(=O)N1N=C(c2ccc(-c3ccc(OC(F)(F)F)c(Cl)c3)cc2)CC1c1ccc2nccnc2c1 (centres unmarked) [Compound 102, 4-(3-(3′-Chloro-4′-(trifluoromethoxy)-[1,1′-biphenyl]-4-yl)-5-(quinoxalin-6-yl)-4,5-dihydro-1H-pyrazol-1-yl)-4-oxobutanoic acid] |  | 52.8 ± 2.5 | 
21 | CC(C)c1ccc(-c2ccc(C3=NN(C(=O)CCC(=O)O)C(c4ccc5nccnc5c4)C3)cc2)cc1 (centres unmarked) [Compound 24, 4-(3-(4′-Isopropyl-[1,1′-biphenyl]-4-yl)-5-(quinoxalin-6-yl)-4,5-dihydro-1H-pyrazol-1-yl)-4-oxobutanoic acid] | 21.8 | 94.1 ± 0.3 | 97.8 ± 0.05
22 | O=C(O)CCC(=O)N1N=C(c2ccc(-c3ccccc3)cc2)CC1c1ccc2nonc2c1 (centres unmarked) [Compound 111, 4-(3-([1,1′-Biphenyl]-4-yl)-5-(benzo[c][1,2,5]oxadiazol-5-yl)-4,5-dihydro-1H-pyrazol-1-yl)-4-oxobutanoic acid] |  | 43.3 ± 9 | 
23 | CC(C)COc1ccc(-c2ccc(C3=NN(C(=O)CCC(=O)O)C(c4ccc5nccnc5c4)C3)cc2)cc1 (centres unmarked) [Compound 82, 4-(3-(4′-Isobutoxy-[1,1′-biphenyl]-4-yl)-5-(quinoxalin-6-yl)-4,5-dihydro-1H-pyrazol-1-yl)-4-oxobutanoic acid] | 9.3 ± 7.6 | 75.7 ± 4.6 | 
24 | CS(=O)(=O)NC(=O)CCC(=O)N1N=C(c2ccc(-c3ccccc3)cc2)CC1c1ccc2nccnc2c1 (centres unmarked) [Compound 57, 4-(3-([1,1′-Biphenyl]-4-yl)-5-(quinoxalin-6-yl)-4,5-dihydro-1H-pyrazol-1-yl)-N-(methylsulfonyl)-4-oxobutanamide] |  | 62.7 ± 4.4 | 89.7 ± 0.5
25 | CN(C)S(=O)(=O)NC(=O)CCC(=O)N1N=C(c2ccc(-c3ccccc3)cc2)CC1c1ccc2nccnc2c1 (centres unmarked) [Compound 71, 4-(3-([1,1′-Biphenyl]-4-yl)-5-(quinoxalin-6-yl)-4,5-dihydro-1H-pyrazol-1-yl)-N—(N,N-dimethylsulfamoyl)-4-oxobutanamide] | < 5 | 70.7 | 
26 | O=C(O)CCC(=O)N1N=C2c3cccc(-c4ccccc4)c3CCC2C1c1ccc2nccnc2c1 (centres unmarked) [Compound 129, 4-Oxo-4-(6-phenyl-3-(quinoxalin-6-yl)-3,3a,4,5-tetrahydro-2H-benzo[g]indazol-2-yl)butanoic acid] |  | 42.5 ± 15.8 | 
